Test results taken from patent US5610174A, “Use of α1A -selective adrenoceptor agonists for the treatment of urinary incontinence” (priority 1995, dated 1997).

What was measured:
[1] = biological target: T1, female dog urethra (α1-adrenoceptor) (Canis lupus, UniProt A0A8I3NK63); test: Contractile study in isolated female dog urethra; details: for pEC50 Urethra: agonist contraction
T1 sequence (A0A8I3NK63 1-466): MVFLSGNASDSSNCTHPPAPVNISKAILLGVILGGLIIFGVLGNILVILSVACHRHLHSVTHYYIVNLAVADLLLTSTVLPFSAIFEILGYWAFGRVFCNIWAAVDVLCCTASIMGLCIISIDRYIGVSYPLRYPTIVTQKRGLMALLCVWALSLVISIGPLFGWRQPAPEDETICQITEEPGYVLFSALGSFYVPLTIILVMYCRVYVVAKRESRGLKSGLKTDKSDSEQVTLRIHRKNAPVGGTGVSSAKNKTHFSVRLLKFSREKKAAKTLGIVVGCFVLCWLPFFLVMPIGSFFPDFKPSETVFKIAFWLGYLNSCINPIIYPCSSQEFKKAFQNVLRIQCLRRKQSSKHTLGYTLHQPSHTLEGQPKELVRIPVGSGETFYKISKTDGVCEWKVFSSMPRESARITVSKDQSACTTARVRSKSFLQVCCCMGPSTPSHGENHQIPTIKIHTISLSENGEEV
Description: (§1) In addition, similar studies were done using bladder neck tissue from female dogs. In order to identify the specific receptor subtype in each tissue, the pharmacological profile was compared to the profiles for these same drugs at the cloned human α1A, α1B, or α1C subtypes.
(§2) Tissue samples from the proximal urethra of male humans and male and female rabbits, as well as tissue samples from both the proximal urethra and bladder neck of male and female dogs were cut into transverse strips (3×10 mm) and suspended under 0.5 g tension in Krebs' physiological buffer at 37° C. To determine agonist potency (pEC50 )and antagonist affinity constants (pKB), concentration-effect curves to the non-selective agonist phenylepherine were constructed in the absence and in the presence of increasing concentrations of the antagonist. Up to four sequential curves were constructed in each tissue. Antagonists were allowed to equilibrate for 1h before each concentration-effect curve, and the drugs were completely washed out in between successive curves. In each experiment, one tissue served as a "time control", in which no antagonist was added so that changes in tissue sensitivity could be assessed as a function of time. […] In instances in which a single concentration of antagonist was used, pKB values were determined by the equation: […], where CR is defined as the ratio of the agonist EC50 in the presence of the antagonist to that in the absence of the antagonist.

[2] = biological target: T2, rabbit urethra, male (α1-adrenoceptor) (Oryctolagus cuniculus, UniProt O02824); test: Contractile study in isolated male rabbit urethra; details: versus phenylephrine-induced contraction
T2 sequence (O02824 1-466): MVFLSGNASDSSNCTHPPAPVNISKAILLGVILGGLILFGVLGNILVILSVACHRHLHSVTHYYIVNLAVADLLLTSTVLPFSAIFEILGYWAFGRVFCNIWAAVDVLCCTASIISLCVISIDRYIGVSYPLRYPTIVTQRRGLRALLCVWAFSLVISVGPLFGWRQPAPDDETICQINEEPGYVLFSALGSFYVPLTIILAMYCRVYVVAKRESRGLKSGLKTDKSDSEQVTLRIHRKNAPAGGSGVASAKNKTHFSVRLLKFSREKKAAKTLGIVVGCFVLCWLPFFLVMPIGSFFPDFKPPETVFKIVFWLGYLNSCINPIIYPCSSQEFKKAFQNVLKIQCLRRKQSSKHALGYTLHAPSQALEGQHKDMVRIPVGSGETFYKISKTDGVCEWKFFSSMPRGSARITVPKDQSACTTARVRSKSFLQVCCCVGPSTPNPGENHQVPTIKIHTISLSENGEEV
Description: as §1, §2

[3] = biological target: T3, dog BN, male (α1-adrenoceptor) (Canis lupus, UniProt A0A8I3NK63); test: Contractile study in isolated male dog bladder neck; details: versus phenylephrine-induced contraction
T3 sequence (A0A8I3NK63 1-466): T1 sequence (A0A8I3NK63 1-466)
Description: as §1, §2

[4] = biological target: T4, human urethra (α1-adrenoceptor) (Homo sapiens, UniProt P35348); test: Contractile study in isolated human male urethra; details: versus phenylephrine-induced contraction; read-out: pKB Human Urethra Male (converted)
T4 construct: Tissue samples from the proximal urethra of male humans; from tissue; host or cells: human male proximal urethra strips
T4 sequence (P35348 1-466): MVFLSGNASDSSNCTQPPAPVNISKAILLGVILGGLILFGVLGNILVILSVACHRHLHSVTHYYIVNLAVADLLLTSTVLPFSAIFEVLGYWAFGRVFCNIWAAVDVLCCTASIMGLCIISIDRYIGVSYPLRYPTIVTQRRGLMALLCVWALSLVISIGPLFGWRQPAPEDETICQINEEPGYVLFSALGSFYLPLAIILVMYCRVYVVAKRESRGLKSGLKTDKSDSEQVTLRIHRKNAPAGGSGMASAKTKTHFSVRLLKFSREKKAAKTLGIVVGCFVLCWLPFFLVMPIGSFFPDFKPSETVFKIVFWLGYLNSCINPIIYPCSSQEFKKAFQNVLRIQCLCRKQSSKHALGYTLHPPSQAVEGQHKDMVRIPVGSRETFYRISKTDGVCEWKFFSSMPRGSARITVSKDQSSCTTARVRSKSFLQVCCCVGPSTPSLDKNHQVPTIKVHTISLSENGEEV
Description: as §1, §2

human 5-HT2 receptor = biological target: T5, human 5-HT2 receptor (Homo sapiens, UniProt P28223); test: Radioligand binding at human 5-HT2; details: [3H]ketanserin; read-out: pKi 5-HT2 (converted)
T5 construct: expressed in transfected cells; host or cells: COS-7 cells (text also names deposited cell line L-NGC-5-HT2, ATCC CRL 10287)
Procedure: The coding sequence of the human 5-HT2 receptor was obtained from a human brain cortex cDNA library, and cloned into the cloning site of pCEXV-3 eukaryotic expression vector. This construct was transfected into COS-7 cells by the DEAE-dextran method. Cells were harvested after 72 hours and lysed by sonication in 5 mM Tris-HCl, 5 mM EDTA, pH 7.5. This cell line was deposited with the ATCC on Oct. […] The cell lysates were centrifuged at 1000 rpm for 5 minutes at 4° C., and the supernatant was centrifuged at 30,000×g for 20 minutes at 4° C. The pellet was suspended in 50 mM Tris-HCl buffer (pH 7.7 at room temperature) containing 10 mM MgSO4, 0.5 mM EDTA, and 0.1% ascorbate. […] Nonspecific binding was defined by the addition of 10 μM mianserin. The bound radioligand was separated by filtration through GF/B filters using a cell harvester.

T5 sequence (P28223 whole entry): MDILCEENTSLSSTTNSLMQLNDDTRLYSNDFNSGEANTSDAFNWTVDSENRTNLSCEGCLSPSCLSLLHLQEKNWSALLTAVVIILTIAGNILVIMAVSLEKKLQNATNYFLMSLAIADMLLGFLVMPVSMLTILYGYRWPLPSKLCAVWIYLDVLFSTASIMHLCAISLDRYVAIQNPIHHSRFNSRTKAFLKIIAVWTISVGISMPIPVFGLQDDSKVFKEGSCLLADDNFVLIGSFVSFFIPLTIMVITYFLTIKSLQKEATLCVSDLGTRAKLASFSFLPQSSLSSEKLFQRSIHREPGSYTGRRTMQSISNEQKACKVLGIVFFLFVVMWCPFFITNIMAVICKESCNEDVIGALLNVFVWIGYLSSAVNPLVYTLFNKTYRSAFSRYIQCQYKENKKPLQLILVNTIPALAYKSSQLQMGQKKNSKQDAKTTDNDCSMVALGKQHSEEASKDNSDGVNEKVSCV

| SMILES | sensitivity of the contraction to prazosin, urethra [1] | pEC50 Urethra [1] | pKB Rabbit Urethra Male [2] | pKB Dog BN Male [3] | Kb [4] [nM] | Ki (human 5-HT2 receptor) [nM] |
| --- | --- | --- | --- | --- | --- | --- |
| CNCCc1ccc(O)c(NS(C)(=O)=O)c1 [SK&F 102652] | highly sensitive to prazosin | 6.0 | – | – | – | – |
| COc1cc2c(cc1OC)CN(c1cc(N)c3cc(OC)c(OC)cc3n1)CC2 [Abanoquil, 2-(6,7-Dimethoxy-3,4-dihydro-1H-isoquinolin-2-yl)-6,7-dimethoxyquinolin-4-ylamine hemifumarate hydrate] | – | – | 8.7 | 8.6 | 0.251 | – |
| CS(=O)(=O)Nc1c(O)ccc2c1CCCC2C1=NCCN1 (racemic) [Compound A-61603, (±)-N-[5-(4,5-Dihydro-1H-imidazol-2-yl)-2-hydroxy-5,6,7,8-tetra-hydronaphthalen-1-yl]methanesulfonamide] | highly sensitive to prazosin | 6.7 | – | – | – | 50100 |
| COc1ccc(SC)c2c1C[C@@H]1[C@@H](C2)OCCN1C (relative stereo) [SDZ NVI-085, (±)-trans-4-Methyl-6-methoxy-9-thiomethoxy-3,4,4a, 5,10,10a-hexahydro-2H-naphtho[2,3-b][1,4]oxazine] | – | – | – | – | – | 316 |
| COc1ccccc1N1CCN(CCCNc2c(C)c(=O)n(C)c(=O)n2C)CC1 [Compound 5-MU] | – | – | 7.8 | 8.7 | 1.58 | – |
